These results are taken from a melting point compilation (Tetko et al.).

As to `CCc1cccc2c3c([nH]c12)C(CC)(CC(=O)O)OCC3` (centres undefined), the melting point – broadly, the temperature of the solid-liquid transition – worked out at 146 °C.

The compound `CC(=O)c1ccc(C)nc1` showed a melting point of 17.6 °C.

`Cc1ccccc1N1CSc2nnc(-c3ccccc3)n2C1` showed a melting point of 199 °C.

With `Cc1[nH]c2ccccc2c1C=O`, the melting point lay within 204 to 205 °C.

As to `CC(C)(Br)C(=O)NC12CC3CC(CC(C3)C1)C2`, the melting point lay in the range of 114 to 115 °C.

In the case of `NC(=NO)c1cc(C(F)(F)F)cc(C(F)(F)F)c1`, the melting point was 131 to 133 °C.

In the case of `Cc1cc(O)c(C)c(C)c1O`, the melting point came to 173 °C.

On to `CC1(O)C(=O)CC2CC1C2(C)C` (centres undefined), for which the melting point came out at 38.5 °C.

On to `Fc1ccc(NC(=S)Nc2cc(Cl)cc(Cl)c2)cc1`, for which the melting point was found to be 164 °C.

In turn, `CCCCCCCCC(C)CC` (centres undefined) gave a melting point of -58 °C.

The compound `O=C1Nc2ccc(Cl)cc2C1=O` showed a melting point of 242 to 250 °C.

In the case of `c1cc2c(c3c1CCCC3)CCCC2`, the melting point amounted to 16.7 °C.

With `Cc1ccc(S(=O)(=O)NC(=O)NC2CCCCC2)cc1`, the melting point is 175 °C.

In the case of `Cn1c(Cl)cc(=O)n(C)c1=O`, the melting point was 110 °C.

The compound `CCOC(=O)NP(=O)(N1CC1)N1CC1` returned a melting point of 89 °C.

With `COc1cc(C(=O)Nc2ccc3nn(C4CCCCC4)nc3c2)cc(OC)c1OC`, the melting point was 130 °C.

Compound `O=C(C=Cc1ccccc1)c1cccs1` had a melting point of 76 to 78 °C.

`CSc1nc2ncc(C(=O)O)c(N)n2n1` displayed a melting point of 278 to 281 °C.

The compound `Nc1cccc2c1CCCC2` displayed a melting point of 38 °C.

The compound `c1ccc(-c2ccc(-c3nnc(-c4ccc(-c5ccccc5)cc4)o3)cc2)cc1` had a melting point of 237 °C.

The compound `O=C(c1cccs1)c1nn2c(nc(=O)c3ccccc32)s1` gave a melting point of 236 °C.

With `CSc1nc2cc(N=Cc3ccc4c(c3)OCO4)ccc2[nH]1`, the melting point was in the range of 213 to 215 °C.

For `CS(=O)(=O)c1nn(-c2ccccc2)c(N)c1C#N`, the melting point came out at 190 °C.

The compound `CCCCN(CCN(CCCC)C(=O)N1CCOCC1)C(=O)N1CCOCC1` returned a melting point of 41.5 °C.

As for `COc1ccc(C(=O)C=Cc2ccc(-c3ccccc3[N+](=O)[O-])o2)cc1OC`, the melting point lay within 119 to 120 °C.

As to `COC(=O)CCCCCCCCCCCC(=O)OC`, the melting point is 36 °C.

Compound `CCCCCCCCC(=O)OCCCC` showed a melting point of -38 °C.

`CCC1c2ccccc2N(C)C12C=Cc1cccc([N+](=O)[O-])c1O2` (centres undefined) came in with a melting point of 148 °C.

Take `O=C(O)c1ccc(Br)c(F)c1`: the melting point was 212 °C.

Compound `C#CC1(OC(N)=O)CCCCC1` displayed a melting point of 96 °C.

`CC(=O)CCn1cc([N+](=O)[O-])nc1C` came in with a melting point of 98 to 100 °C.

Regarding `CC(=O)c1nn(-c2ccccc2[N+](=O)[O-])c(=N)s1`, the melting point turned out to be 186 °C.

Compound `CCCOC(=O)C1=C(C)NC(C)=C(C(=O)OCCC)C1c1cccc(OC)c1O` displayed a melting point of 166 to 168 °C.

Regarding `Cc1nc(C=O)c[nH]1`, the melting point turned out to be 165 °C.

`Cc1cc(C)n(CO)n1`: the melting point turned out to be 109 °C.

On to `Cc1c(Nc2ncccc2C(=O)O)cccc1C(F)(F)F`, for which the melting point came to 226 °C.

For `CC1(C)C(=O)OOC1=O`, the melting point was in the range of 44 to 45 °C.

`CSc1nc2cc(N=Cc3ccccc3Cl)ccc2[nH]1` had a melting point of 229 to 231 °C.

`O=Cc1ccc(Br)cn1`: the melting point is 95 °C.

Regarding `Oc1cc(C(F)(F)F)nc2ccc(Br)cc12`, the melting point came out at 290 °C.

Compound `O=C(O)c1ccccc1C(=O)O` gave a melting point of 200 to 205 °C.

In the case of `O=C(O)c1c(C(=O)O)c(C(=O)O)c(C(=O)O)c(C(=O)O)c1C(=O)O`, the melting point was determined as 287 °C.

On to `CC(=NNc1ccccc1)C(=O)c1cc(C(=O)C(C)=NNc2ccccc2)c([N+](=O)[O-])cc1[N+](=O)[O-]`, for which the melting point was determined as 234 °C.

In turn, `C=C1C[C@H]1C(O)C(=O)OC` (some centres undefined) came in with a melting point of 41.5 °C.

Take `COc1ccc(/N=N/c2c(N)nn3c(C)cc(C)nc23)cc1`: the melting point is 201 to 203 °C.

As for `O=C(CCl)Oc1ccc([N+](=O)[O-])cc1`, the melting point was 73 to 75 °C.

For the compound `N#CC1=C(C#N)C(=O)C(NCCc2ccccc2)=C(Cl)C1=O`, the melting point fell in the range of 265 to 267 °C.

The compound `CC(C)NCCCC1(C(N)=O)c2ccccc2-c2ccccc21` gave a melting point of 94.5 °C.

Turning to `c1ccc(-c2sc(-c3ccccc3)c3ccccc23)cc1`, the melting point is 114 to 119 °C.

Regarding `Clc1cc2c(cc1Cl)Oc1cc(Cl)c(Cl)cc1O2`, the melting point turned out to be 305 °C.

The compound `COC(=O)c1cc(Cl)nc(Cl)c1` displayed a melting point of 82 to 83 °C.

For the compound `C=C1C(=O)C23C(OC(C)=O)CC4C5(C)CCCC4(C(=O)OC5)C2C(OC(C)=O)CC1C3OC(C)=O` (centres undefined), the melting point worked out at 235 °C.

With `O=C1Nc2ccccc2C12OCCO2`, the melting point was in the range of 125 to 128 °C.

On to `O=[N+]([O-])c1ccc(S(=O)(=O)N2CCOCC2)cc1`, for which the melting point fell in the range of 173 to 175 °C.

For `O=c1c(Cl)c(Cl)cnn1-c1ccc(F)c(Cl)c1`, the melting point lay within 201 to 203 °C.

For `Cc1ccc(S(=O)(=O)CC(=O)c2ccccc2)cc1`, the melting point is 109 to 110 °C.

In turn, `COc1ccc(-c2cc(-c3ccc(OC)cc3)cc(-c3ccc(OC)cc3)c2)cc1` gave a melting point of 143 to 146 °C.

As for `CC(=O)Nc1cccc(N=[N+]([O-])c2cccc(NC(C)=O)c2)c1`, the melting point was determined as 254 °C.

Regarding `O=[N+]([O-])C=Cc1c(F)cccc1Cl`, the melting point turned out to be 63 °C.

Compound `N#Cc1ccnc(Br)c1` returned a melting point of 72 °C.

As to `O=c1[nH]c2ccc(Br)cc2c(=O)o1`, the melting point lay in the range of 285 to 290 °C.

Compound `CN(C)c1ccc(C=C2C(=O)OC(C)(C)OC2=O)cc1` showed a melting point of 162 °C.

Take `O=S(=O)(Cl)c1cc(Br)cc2c1OCC2`: the melting point is 121 to 122 °C.

On to `Cc1c(C#N)c(N)n(Cc2c(Cl)cccc2Cl)c1C`, for which the melting point fell in the range of 194 to 196 °C.

For `O=C1NC(=O)C(=NNc2cccc([N+](=O)[O-])c2)C(=O)N1`, the melting point stood at 270 °C.

Turning to `COc1ccc(S(N)(=O)=O)cc1F`, the melting point was 126 °C.

For `O=Cc1cc(Cl)cc(C=O)c1O`, the melting point was in the range of 119 to 125 °C.

For the compound `COc1cccc(O)c1`, the melting point is -17 °C.

Consider `N#C/C(=N/Nc1cc(Cl)c(Cl)cc1Cl)c1nc2ccccc2c(=O)[nH]1`, for which the melting point amounted to 149 °C.

Consider `CC12COC(=O)CC1CCC1C2CCC2(C)C1CCC2(C)O` (centres undefined), for which the melting point came out at 236 °C.

`COc1cc(O)ccc1C=O`: the melting point came to 158 °C.

With `CCOC(=O)c1csc(C2CCN(C(=O)OC(C)(C)C)CC2)n1`, the melting point lay in the range of 71 to 73 °C.

On to `CC1CCCC(=O)C1=O` (centres undefined), for which the melting point is 58 °C.

For the compound `O=C(Nc1ccccc1NC(=O)c1ccccc1)c1ccccc1`, the melting point fell in the range of 301 to 302 °C.

In turn, `COc1cc(O)cc(OC)c1OC` registered a melting point of 146 to 149 °C.

Consider `Cc1cccc(NC(=O)c2nn(-c3ccccc3)nc2C)n1`, for which the melting point is 136 to 137 °C.

`Cc1[nH]c2ccccc2c1C#N`: the melting point lay in the range of 212 to 213 °C.

In the case of `CC(=O)c1cc2ccccc2oc1=O`, the melting point came to 122 °C.

In turn, `CN(C)C(=S)SC(=S)N(C)C` gave a melting point of 106 to 110 °C.

With `C=CC(C)(CCC=C(C)C)OC(=O)C(C)C` (centres undefined), the melting point is less than 25 °C.

Compound `CN(C)CCCN1c2ccccc2Sc2ccccc21` displayed a melting point of 33 °C.

With `CO[C@]12C(=O)CCc3cccc(c31)Oc1ccc3ccccc3c12`, the melting point is 154 °C.

In the case of `Cc1ccc2cc(CBr)ccc2n1`, the melting point is 93 to 94 °C.

Take `Nc1ncccc1C=O`: the melting point is 101 °C.

With `CCOc1cc(Oc2ccc(C(F)(F)F)cc2Cl)ccc1[N+](=O)[O-]`, the melting point was 85.3 °C.

Turning to `Cc1ccc2[nH]cc(CC(N)C(=O)O)c2c1` (racemic), the melting point was 280 to 282 °C.

In the case of `CC12CCC(=O)CC1CCC1C2CCC2(C)C1CCC21OCCO1` (centres undefined), the melting point lay in the range of 192 to 196 °C.

The compound `Cc1cccc2cc3c(ccc4ccccc43)cc12` returned a melting point of 156 °C.

Compound `CN1CCCC1c1cccnc1` (centres undefined) registered a melting point of -79 °C.

In turn, `COc1cc(O)c2c(=O)c(-c3ccc(O)cc3)coc2c1` showed a melting point of 240 °C.

As for `S=c1nnc(-c2ccccc2)c(Nc2ccc(Cl)cc2)[nH]1`, the melting point turned out to be 314 °C.

`NNC(=O)c1sc2ccccc2c1Cl`: the melting point was 181 to 183 °C.

Turning to `CCOC(=O)C=Cc1ccccc1`, the melting point was 7 °C.

As for `S=c1nnc(-c2ccccc2)c(Nc2ccc(Br)cc2)[nH]1`, the melting point was 359 °C.

Compound `CCCCCCCCC(=O)c1ccc(/N=N/c2ccc(OCC)cc2)cc1` displayed a melting point of 63 to 108 °C.

Regarding `Cc1cc(-c2onc(C)c2C(=O)Cl)no1`, the melting point came to 57 °C.

The compound `O=Nc1ccc2ccccc2c1O` returned a melting point of 156 to 158 °C.

As for `O=C(Cc1ccccc1)C(c1ccccc1)N1CCCCC1` (centres undefined), the melting point stood at 137 °C.

In turn, `O=[N+]([O-])c1ccc2c(c1)-c1cccc([N+](=O)[O-])c1C2` came in with a melting point of 284 to 288 °C.

Compound `CC1(C)OC[C@H](CC(N)=O)O1` returned a melting point of 108 to 109 °C.

In turn, `COc1ccc(-c2ccc(S(=O)(=O)NC(C)C(=O)O)cc2)cc1` (centres undefined) had a melting point of 179 °C.

For the compound `NCCCCCCCCN`, the melting point was 52 °C.

Regarding `CCCCCCCCCCCC=CCCCCC(=O)O`, the melting point was determined as 29.8 °C.

The compound `CC(=O)C(C(C)=O)C(c1ccc(C)o1)c1ccc(C)o1` registered a melting point of 60 °C.

In turn, `O=C(O)c1cccc(Cl)c1F` came in with a melting point of 177 °C.

In the case of `NNC(=S)NCc1ccc2c(c1)OCO2`, the melting point lay within 158 to 160 °C.

Consider `Clc1c2ccccc2cc2ccccc12`, for which the melting point turned out to be 104 °C.

The compound `O=[N+]([O-])c1ccc2ncsc2c1` registered a melting point of 175 °C.

For the compound `C1=C\c2ccc(cc2)-c2ccccc2-c2ccc/1cc2`, the melting point stood at 230 °C.
